Measured values as given in patent US4026888A, “Certain derivatives of particular 3-thiolated cephalosporins” (priority 1976, dated 1977).
In brackets after ≈: the same amount, converted by molar mass. Where two headings read alike, the source gives them in different places.

What was measured:
[1] = Paper chromatography of rat urine for antibiotically active metabolites; format: in vivo; conditions: IM; rat urine 0-2 and 2-4 hours
Method: Paper chromatograms were run on rat urine collected between 0 and 2 and between 2 and 4 hours following IM administration of BL-S1055 and 640, for the detection of antibiotically active metabolites using descending chromatography with system No. 9 (butyl acetate:n-butanol:glacial acetic acid:H2 O= 80:15:40:24).

Str. pneumoniae A9585 = assay: Antibiotic activity in nutrient broth (MIC); format: cell-based; conditions: Streptococcus pneumoniae, A9585, inoculum 10^-3 dilution of overnight broth culture; 45% AAB + 5% serum + 50% broth; derivatives adjusted for BL-S640 content
From the text: (§1) Antibiotic Activity In Nutrient Broth
(§2) * 45% AAB+ 5% serum+ 50% broth listed above.
(§3) ** Dilution of overnight broth culture.
(§4) Antibiotic Spectrum Nutrient Broth
(§5) * 45% AAB + 5% serum + 50% broth
(§6) Antibiotic Spectrum in Nutrient Broth
(§7) *45% AAB + 5% serum + 50% broth listed above.

Str. pyogenes A9604 = assay: Antibiotic activity in nutrient broth (MIC); format: cell-based; conditions: Streptococcus pyogenes, A9604, inoculum 10^-3; 45% AAB + 5% serum + 50% broth; derivatives adjusted for BL-S640 content; read-out: MIC
From the text: as §1, §2, §3, §4, §5, §6, §7

[2] = Mouse blood levels after oral administration; format: in vivo; conditions: mouse, blood, po, 100 mg/kg, PO 100 mg./kg., Tween-CMC, read-out: Blood Levels
Method: Mouse Blood Levels After Oral
Administration Of 100 mg./kg. Body Weight
The compounds were prepared in
Tween - carboxymethylcellulose
and 8 mice were used for each
Mouse Blood Levels After PO
Administration of 100 mg./kg. Body Weight
The compounds were prepared in Tween-CMC. BL-S640
The compounds were prepared in Tween-CMC. Values are the average of two

E. coli A15119 = assay: Oral PD50 in mice; format: in vivo; conditions: for ED50: Escherichia coli, A15119, po, 3.5 h, read-out: PD50
Method: (§8) Comparative Oral PD50 Values of
(§9) BL-S640 Derivatives in Mice
(§10) *Mice were treated at 1 and 3.5 hours post-challenge.

S. pyogenes A9604 = assay: Oral PD50 in mice; format: in vivo; conditions: Streptococcus pyogenes, mice treated at 1 and 3.5 hours post-challenge
Method: as §8, §9, §10

K. pneumoniae A9977 [3] = assay: Oral PD50 in mice; format: in vivo; conditions: Klebsiella pneumoniae, read-out: PD50
Method: as §8, §9, §10

P. mirabilis A9707 = assay: Oral PD50 in mice; format: in vivo; conditions: Proteus mirabilis, mice treated at 1 and 3.5 hours post-challenge
Method: as §8, §9, §10

P. mirabilis A9900 [4] = assay: IM PD50 in mice; format: in vivo; conditions: Proteus mirabilis
From the text: Comparative IM PD50 Values of
as §9

P. mirabilis A9900 [5] = assay: Oral PD50 in mice; format: in vivo; conditions: mice treated at 1 and 3.5 hours post-challenge; for ED50: Proteus mirabilis, A9900, po, 3.5 h
[6] = Urinary recovery after IM administration to rats; format: in vivo; conditions: rat, urine, read-out: Urinary Recovery, Percentage of Administered Dose Recovered; for dose excreted at 6 h: 0-6 hr
Method: Urinary Recovery After IM
Administration of 50 and 10 mg./kg. to Rats
The compounds were prepared in 0.01% phosphate buffer. BL-S640 was used as
Urinary Recovery after IM
Administration of 50 mg./kg. to Rats
(§11) The compounds were prepared in 0.01% phosphate buffer.

[7] = Mouse blood levels after intramuscular administration; format: in vivo; conditions: mouse, blood, im, 10 mg/kg, IM 10 mg./kg., read-out: Blood Levels
Method: Mouse Blood Levels After Intramuscular Administration
of 10 mg./kg. Body Weight
The compounds were dissolved in 0.01% phosphate buffer.
Mouse Blood Levels After IM
Administration of 10 mg./kg. Body Weight
The compounds were prepared in 0.01% phosphate
as §11

E. coli A9675 = assay: Antibiotic activity in nutrient broth (MIC); format: cell-based; conditions: Escherichia coli, A9675, inoculum 10^-4; derivatives adjusted for BL-S640 content; read-out: MIC
From the text: as §1, §3, §4, §6

Ps. aeruginosa A9843A = assay: Antibiotic activity in nutrient broth (MIC); format: cell-based; conditions: Pseudomonas aeruginosa
From the text: as §1, §3, §4, §6

Sal. enteritidis A9531 = assay: Antibiotic activity in nutrient broth (MIC); format: cell-based; conditions: Salmonella enterica, ENTERITIDIS, inoculum 10^-4; derivatives adjusted for BL-S640 content; read-out: MIC
From the text: as §1, §3, §4, §6

Pr. morganii A15153 = assay: Antibiotic activity in nutrient broth (MIC); format: cell-based; conditions: Morganella morganii, A15153, inoculum 10^-4; derivatives adjusted for BL-S640 content; read-out: MIC
From the text: as §1, §3, §4, §6

Ent. cloacae A9656 = assay: Antibiotic activity in nutrient broth (MIC); format: cell-based; conditions: Enterobacter cloacae, A9656, inoculum 10^-4; derivatives adjusted for BL-S640 content
From the text: as §1, §3, §4, §6

K. pneumoniae A15130 = assay: Antibiotic activity in nutrient broth (MIC); format: cell-based; conditions: Klebsiella pneumoniae, A15130, inoculum 10^-4; derivatives adjusted for BL-S640 content; read-out: MIC
From the text: as §1, §3, §4, §6

K. pneumoniae A9977 [8] = assay: Antibiotic activity in nutrient broth (MIC); format: cell-based; conditions: Klebsiella pneumoniae, inoculum 10^-4, derivatives adjusted for BL-S640 content, read-out: MIC
From the text: as §1, §3, §4, §6

[9] = tested on: S. aureus Meth-Res A15097; assay: Antibiotic activity in nutrient broth (MIC); format: cell-based; conditions: Staphylococcus aureus, inoculum 10^-3; Meth-Res; derivatives adjusted for BL-S640 content; read-out: MIC
From the text: as §1, §3, §4, §6

Ent. cloacae A9659 = assay: Antibiotic activity in nutrient broth (MIC); format: cell-based; conditions: Enterobacter cloacae, A9659, inoculum 10^-4; derivatives adjusted for BL-S640 content; read-out: MIC
From the text: as §1, §3, §4, §6

[10] = oral, mice treated at 1 and 3.5 hours post-challenge
[11] = 50 mg/kg, IM 50 mg./kg., 0-24 hr
[12] = 50 mg/kg, IM 50 mg./kg., 6-24 hr
[13] = Example 2, 0.01% phosphate buffer, 16 or 32 mice
[14] = Example 3, average of two experiments
[15] = Example 3, average of 3 experiments

Which “Hydrolysis to the parent compound (BL-S640)” value [1] does the source give for `O=C(O)COc1ccccc1C1N[C@H](c2ccc(O)cc2)C(=O)N1[C@@H]1C(=O)N2C(C(=O)O)=C(CSc3cnn[nH]3)CS[C@H]12` (stereo partly drawn) [BL-S1048] here?
Its value is “complete hydrolysis”.

What about the MIC (Str. pneumoniae A9585) of the same compound?
The MIC was 0.06 µg/mL.

What about the MIC (Str. pyogenes A9604) of the same compound?
Its MIC is 0.03 µg/mL.

And the concentration at 0.5 h ([2]; Example 2, 16 or 32 mice)?
Its concentration at 0.5 h is 46500 ng/mL.

What about the concentration at 1 h ([2]; Example 2, 16 or 32 mice) of the same compound?
The concentration at 1 h was 44600 ng/mL.

What about the concentration at 2 h ([2]; Example 2, 16 or 32 mice) of the same compound?
Its concentration at 2 h is 28100 ng/mL.

And the concentration at 3.5 h ([2]; Example 2, 16 or 32 mice)?
The concentration at 3.5 h was 12800 ng/mL.

What about the ED50 (E. coli A15119; [10]) of the same compound?
The ED50 was 3.1 mg/kg.

And the ED50 (E. coli A15119)?
The ED50 was 1.6 mg/kg.

What about the ED50 (S. pyogenes A9604) of the same compound?
Its ED50 is 0.2 mg/kg.

What about the ED50 (K. pneumoniae A9977 [3]; A9977, po, 3.5 h) of the same compound?
Its ED50 is 0.7 mg/kg.

And the ED50 (P. mirabilis A9707)?
Its ED50 is 2.4 mg/kg.

And the “Form in solution by paper strip and liquid chromatography” value (0.2 and 1.0 mg./ml. in water)?
The value was “BL-S640 completely free of the aldehyde”.

And the ED50 (P. mirabilis A9900 [4])?
Its ED50 is 1.6 mg/kg.

And the ED50 (P. mirabilis A9900 [5]; read-out: PD50, oral)?
Its ED50 is 4.7 mg/kg.

What about the PD50 (P. mirabilis A9900 [5]; oral) of the same compound?
The PD50 was 3.6 mg./kg./treatment.

And the dose excreted at 6 h ([6]; 10 mg/kg, IM 10 mg./kg.)?
The dose excreted at 6 h was 21.7%.

What about the dose excreted at 24 h ([6]; 10 mg/kg, IM 10 mg./kg., 0-24 hr) of the same compound?
Its dose excreted at 24 h is 23.7%.

What about the dose excreted at 24 h ([6]; 10 mg/kg, IM 10 mg./kg., 6-24 hr) of the same compound?
Its dose excreted at 24 h is 2%.

What about the dose excreted at 6 h ([6]; 50 mg/kg, IM 50 mg./kg.) of the same compound?
The dose excreted at 6 h was 32.3%.

What about the dose excreted at 24 h [6, 11] of the same compound?
The dose excreted at 24 h was 34.7%.

What about the dose excreted at 24 h [6, 12] of the same compound?
Its dose excreted at 24 h is 2.4%.

What about the concentration at 0.25 h [7, 13] of the same compound?
The concentration at 0.25 h was 14800 ng/mL.

And the concentration at 0.5 h [7, 13]?
The concentration at 0.5 h was 14100 ng/mL.

What about the concentration at 1 h [7, 13] of the same compound?
Its concentration at 1 h is 10300 ng/mL.

What about the concentration at 1.5 h [7, 13] of the same compound?
The concentration at 1.5 h was 7000 ng/mL.

And the MIC (E. coli A9675)?
Its MIC is 2 µg/mL (≈ 3.2 µM).

And the MIC (Ps. aeruginosa A9843A)?
The MIC was > 125 µg/mL.

And the MIC (Sal. enteritidis A9531)?
The MIC was 0.13 µg/mL (≈ 0.208 µM).

And the MIC (Pr. morganii A15153)?
The MIC was 32 µg/mL (≈ 51.2 µM).

And the MIC (Ent. cloacae A9656)?
The MIC was > 125 µg/mL.

What about the MIC (K. pneumoniae A15130) of the same compound?
Its MIC is 1 µg/mL (≈ 1.6 µM).

And the MIC (K. pneumoniae A9977 [8])?
The MIC was 0.5 µg/mL (≈ 0.8 µM).

What about the MIC [9] of the same compound?
Its MIC is 4 µg/mL (≈ 6.4 µM).

What about the MIC (Ent. cloacae A9659) of the same compound?
Its MIC is 32 µg/mL (≈ 51.2 µM).

What does the source list for `O=C(O)C1=C(CSc2cnn[nH]2)CS[C@@H]2[C@H](N3C(=O)[C@@H](c4ccc(O)cc4)NC3c3ccccc3S(=O)(=O)O)C(=O)N12` (stereo partly drawn) [BL-S1055]?
Hydrolysis to the parent compound (BL-S640) [1]: complete hydrolysis; MIC (Str. pneumoniae A9585): 0.06 µg/mL; MIC (Str. pyogenes A9604): 0.016 µg/mL; concentration at 0.5 h [2, 14]: 38200 ng/mL; concentration at 1 h [2, 14]: 35700 ng/mL; concentration at 2 h [2, 14]: 22000 ng/mL; concentration at 3.5 h [2, 14]: 11300 ng/mL; ED50 (E. coli A15119; [10]): 1.8 mg/kg; PD50 (E. coli A15119; [10]): 1.6 mg./kg./treatment; ED50 (S. pyogenes A9604): 0.4 mg/kg; ED50 (K. pneumoniae A9977 [3]; A9977, oral, mice treated at 1 and 3.5 hours post-challenge): 1.6 mg/kg; ED50 (P. mirabilis A9707): 1 mg/kg; % Free BL-S640 by liquid chromatography (0 min): 64.0%; ED50 (P. mirabilis A9900 [4]): 1.6 mg/kg; ED50 (P. mirabilis A9900 [5]; oral, read-out: PD50): 8.2 mg/kg; dose excreted at 6 h ([6]; 50 mg/kg, IM 50 mg./kg.): 36.6%; dose excreted at 24 h [6, 11]: 39%; dose excreted at 24 h [6, 12]: 2.4%; concentration at 0.25 h [7, 15]: 10300 ng/mL; concentration at 0.5 h [7, 15]: 9900 ng/mL; concentration at 1 h [7, 15]: 7600 ng/mL; concentration at 1.5 h [7, 15]: 6500 ng/mL; MIC (E. coli A9675): 4 µg/mL (≈ 6.34 µM); MIC (Ps. aeruginosa A9843A): > 125 µg/mL; MIC (Sal. enteritidis A9531): 0.35 µg/mL (≈ 0.555 µM); MIC (Pr. morganii A15153): 32 µg/mL (≈ 50.7 µM); MIC (Ent. cloacae A9656): 125 µg/mL (≈ 198 µM); MIC (K. pneumoniae A15130): 1 µg/mL (≈ 1.59 µM); MIC (K. pneumoniae A9977 [8]): 0.5 µg/mL (≈ 0.793 µM); MIC [9]: 4 µg/mL (≈ 6.34 µM); MIC (Ent. cloacae A9659): 63 µg/mL (≈ 99.9 µM)
